The values below come from patent US5229267A, “Assay for evaluating inhibition of PMN elastase by N-substituted azetidinones” (Merck & Co., Inc., priority 1991, dated 1993).

The assay relates to antibody R674. The assay is described as follows: RIA: displacement of tritium labeled Compound A' or B' from polyclonal rabbit antiserum R674. In kind it is binding, New Zealand white rabbits. Particulars: up to 10 μM (the highest concentration tested). The method, then:
Antibodies for the reactivation product of formula II were produced by the methods described in Basic methodology of Vituakaitis, Meth. Enzymol. 73: 46-52 (1981). Specifically, New Zealand white rabbits were immunized with Compound C (the para succinyl aminomethyl derivative of compound B'), coupled to thyroglobulin. See Scheme 3. The initial immunizations employed 1 mg of the immunogen conjugate per ml saline homogenized with 1 ml of Freund's complete adjuvant. Rabbits received a total of 0.4 ml divided over 2 intramuscular sites. Animals were boosted 30 days later receiving 0.5 mg immunogen per ml saline homogenized with 1 ml Freund's Incomplete adjuvant. […]
Antibody titer, antibody sensitivity, antibody specificity and the presence of and concentration of reactivation product in body fluids were determined by a radioimmunoassay (RIA). […]
Non-antibody-bound radioactive isotope was removed from the reaction mixture by it's absorption onto dextran-coated activated charcoal. […] The supernatant fluid was decanted into 9 ml of AQUASOL-2 scintillation fluid and radioactivity counted in a beta-counter. […] Percent specific binding was determined by subtracting the value for non-specific binding from the value of total antiserum binding and then dividing by the total radioactivity added.
Sensitivity of the antisera R674 (2nd bleed) was determined in the above RIA. […]

For the molecule `NC(N)=O` [Urea, urea], the “effect in RIA (displacement)” value is reported as “without affect”. On to `N=C(N)NCCC[C@H](N)C(=O)O` [arginine], for which the “effect in RIA (displacement)” value is “without affect”.
